Where a SMILES comes first, the peptide text is derived from it. The star is where a group is joined. Cbz = O=C(OCc1ccccc1)*
Tests used:
[1] = tested on: Vif-mediated APOBEC3G degradation; experiment: Cell-based screening assay, Vif/APOBEC3G-luciferase HeLa line; set-up: species or system HIV; details: 10 μM MG132 for 24 hours; selected blasticidin-resistant Vif/APOBEC3G-luciferase HeLa clone
Excerpt: Inhibitors of Vif-mediated APOBEC3G degradation were screened using a cell-based assay. The assay uses HeLa cells that stably expresses Vif and APOBEC3G fused at its C-terminus to firefly luciferase. Under steady-state conditions, there is very little luciferase activity. When degradation of the APOBEC3G-luciferase fusion is inhibited, a significant increase in the luciferase activity is observed.
Construction of screening line (Vif/APOBEC3G-luciferase HeLa line). HeLa cells were cotransfected with a 1:1 ratio of pcDNA6-Vif and pcDNA3.1-APOBEC3G-luciferase plasmids using Fugene transfection reagent. Twenty-four hours after transfection, cells were trypsinized and different dilutions plated on 10 cm dishes. After attachment, stable transfectants were selected using medium containing 10 μg/ml blasticidin S. The blasticidin resistance gene is carried in the pcDNA6-Vif plasmid. Individual clones were plated in duplicate 96-well plates, treated with either DMSO or 10 μM MG132 for 24 hours, and then assayed for luciferase activity. […] The presence of Vif and APOBEC3G-luciferase proteins was confirmed by treating cells with 10 μM MG132 overnight and analyzing cell lysates for both Vif and APOBEC3G-luciferase by western blotting (See FIG. 7B).

[2] = tested on: A3G-luciferase (A3G-luc); experiment: APOBEC3G-luciferase activity in virus supernatant of co-transfected 293T cells; type: cell-based; details: 10 uM MG132
Excerpt: (§1) In all embodiments employing cotransfection of a wild-type or Δvif HIV genome together with an APOBEC3G-fluorescent reporter fusion, adjusting the relative ratio of plasmids encoding the wild-type (WT) or Δvif HIV genomes and A3G-luciferase (A3G-luc) for cotransfection in virus producer cells (e.g., 293T cells) is useful for achieving an optimal signal to background ratio and dynamic assay range for antiviral compound characterization. Adjusting the cotransfection ratio is also useful for obtaining a linear correlation between the fluorescent reporter (e.g., luciferase) signal and the level of A3G-fluorescent reporter protein detected by Western blotting. The luciferase activity ratio of (Δvif HIV+A3G-luc) over (WT HIV+A3G-luc) in both virus supernatant and 293T cell lysates was measured.
(§2) 293T cells were seeded in 6-well plates at 500,000 cells/well density. On the second day, 4 μg of wild-type or delta vif HIV-1 construct and pcDNA3.1-APOBEC3G-luciferase construct plasmid DNA were co-transfected into 293T cells using Lipofectamine 2000 (Invitrogen). On the third day, cells were detached with trypsin and plated into 24-well plates at 300,000 cells/well density. On the fourth day, medium was replaced in each well with either 0.5% DMSP medium or with compound and 0.5% DMSO containing medium.
Twenty hours post dosing, the culture supernatant from Example 5 was harvested and filtered through a 0.45μ filter. Twenty microliters of virus supernatant from each sample were transferred into a 96-Well plate. 30 μL of culture medium and 50 μL of Bright-Glo lysis buffer (Promega), were added to each well, followed by 50 μL of Bright-Glo Substrate (Promega). The luciferase activity from the virus supernatant was then detected using a Top Count reader (Perkin Elmer). The concentration of virus particles in the supernatant was determined by p24 ELISA (Perkin Elmer). The luciferase activity of the virus supernatant was then normalized relative to the concentration of virus particles by dividing the background corrected luciferase light units by the p24 values.

[3] = tested on: A3G-luciferase (A3G-luc); experiment: APOBEC3G-luciferase activity in 293T cell lysate of co-transfected virus producer cells; type: cell-based; details: 10 uM MG132
Excerpt: as §1, §2
Twenty hours post dosing, the virus producing 293T cells of Example 5 were lysed with 200 μL of Bright-Glo lysis buffer in 24-well plates. Cell lysates were diluted 1:100 in PBS. 10 μL of each lysate sample were transferred to small well 96-well plates and 10 μL of Bright-Glo substrate were added to each well. The luciferase activity from the cell lysates was then detected using a Top Count reader. The total protein concentration was determined using the Quant-IT Protein Assay Kit (Molecular Probes). The luciferase activity was normalized relative to total cellular protein by dividing the background corrected luciferase light units by the total protein concentration.

[4] = Experiment 1, co-transfection ratio 19:1
[5] = Experiment 1, co-transfection ratio 39:1
[6] = Experiment 1, co-transfection ratio 79:1
[7] = Experiment 1, co-transfection ratio 159:1
[8] = Experiment 2, co-transfection ratio 19:1
[9] = Experiment 2, co-transfection ratio 39:1
[10] = Experiment 2, co-transfection ratio 79:1
[11] = Experiment 2, co-transfection ratio 159:1

SMILES: CC(C)C[C@@H](C=O)NC(=O)[C@H](CC(C)C)NC(=O)[C@H](CC(C)C)NC(=O)OCc1ccccc1 [MG132] (Cbz-Leu-Leu-Leu-aldehyde)
- window in luciferase activity between DMSO and MG132 [1]: at least a ten-fold window in luciferase activity
- RLU ratio (delta vif HIV + A3G-luc/WT HIV + A3G-luc), Virus sup. (RLU) [2, 4]: 3.2
- RLU ratio (delta vif HIV + A3G-luc/WT HIV + A3G-luc), Virus sup. (RLU) [2, 5]: 5.5
- RLU ratio (delta vif HIV + A3G-luc/WT HIV + A3G-luc), Virus sup. (RLU) [2, 6]: 5.9
- RLU ratio (delta vif HIV + A3G-luc/WT HIV + A3G-luc), Virus sup. (RLU) [2, 7]: 4.7
- RLU ratio (delta vif HIV + A3G-luc/WT HIV + A3G-luc), Virus sup. (RLU) [2, 8]: 9.2
- RLU ratio (delta vif HIV + A3G-luc/WT HIV + A3G-luc), Virus sup. (RLU) [2, 9]: 3.9
- RLU ratio (delta vif HIV + A3G-luc/WT HIV + A3G-luc), Virus sup. (RLU) [2, 10]: 16.8
- RLU ratio (delta vif HIV + A3G-luc/WT HIV + A3G-luc), Virus sup. (RLU) [2, 11]: 9.2
- RLU ratio (delta vif HIV + A3G-luc/WT HIV + A3G-luc), 293 T cell lysate (RLU) [3, 4]: 2.6
- RLU ratio (delta vif HIV + A3G-luc/WT HIV + A3G-luc), 293 T cell lysate (RLU) [3, 5]: 2.4
- RLU ratio (delta vif HIV + A3G-luc/WT HIV + A3G-luc), 293 T cell lysate (RLU) [3, 6]: 3.7
- RLU ratio (delta vif HIV + A3G-luc/WT HIV + A3G-luc), 293 T cell lysate (RLU) [3, 7]: 6.8
- RLU ratio (delta vif HIV + A3G-luc/WT HIV + A3G-luc), 293 T cell lysate (RLU) [3, 8]: 1.4
- RLU ratio (delta vif HIV + A3G-luc/WT HIV + A3G-luc), 293 T cell lysate (RLU) [3, 9]: 1.8
- RLU ratio (delta vif HIV + A3G-luc/WT HIV + A3G-luc), 293 T cell lysate (RLU) [3, 10]: 2.9
- RLU ratio (delta vif HIV + A3G-luc/WT HIV + A3G-luc), 293 T cell lysate (RLU) [3, 11]: 8.7

Source: patent US20110104662A1, “Methods of Detecting Inhibitors of VIF-Mediated APOBEC3G Degradation and HIV” (RIGEL PHARMACEUTICALS, INC., priority 2007, published 2011)
